Reference: patent publication EP0528172A1, “(2-Alkyl-3-pyridyl)methylpiperazine derivatives as PAF antagonists” (J. URIACH & CIA. S.A., priority 1991, dated 1993)
Where two headings read alike, the source gives them in different places.

Assays:
[1] = tested on: platelet aggregation induced by PAF; experiment: Inhibition of platelet aggregation induced by PAF (platelet rich plasma, Born nephelometric technique); assay type: cell-based, New Zealand albino rabbits; conditions: rabbit platelet rich plasma, PAF C₁₈ 16 nM final, concentration needed to inhibit platelet aggregation in a 50%, read-out: IC₅₀
Experimental: Inhibition of platelet aggregation induced by PAF.
The blood is obtained by cardiac puncture of male New Zealand albino rabbits (between 2 and 2.5 Kg of weight) and coagulation is prevented by adding 1 part of 3.16% sodium citrate dihydrate in 9 parts of blood. The platelet rich plasma (PRP) is prepared by blood centrifugation at 250xg for 10 min. at 4°C and it is diluted with platelet poor plasma (PPP) obtained by additional centrifugation at 3000xg for 10 min. The amount of platelets is adjusted to […]. The platelet aggregation induced by PAF (C₁₈, prepared in our laboratory) (16 nM, final) is determined by the Born nephelometric technique (J. Physiol., 1962, 162, 67) using an aggregometer Chrono-log 500. The activities of the inhibitors are expressed as IC₅₀ values, that is to say the concentration of the drug needed to inhibit the platelet aggregation in a 50%.

[2] = tested on: hypotension induced by PAF; experiment: Inhibition of the hypotensive effect induced by PAF in normotense rats; assay type: in vivo, Sprage Dawley rats; conditions: for ED50: Rattus norvegicus, iv, read-out: ID₅₀
Experimental: Inhibition of the hypotensive effect induced by PAF in normotense rats.
Male Sprage Dawley rats, of 180-220 g of weight, anesthetized with sodium pentobarbital (50 mg/Kg, i.p. 1 mL/100 g) have been used. In order to measure the average arterial pressure, a polyethylene catheter is introduced into the carotid artery. The arterial pressure is recorded with the help of a transducer connected with a R611 Beckman polygraph. The tested compounds are administered through the femoral vein 3 min. before the injection of PAF (0.5 mcg/Kg, i.v.) . The inhibition of the hypotension induced by PAF of the different compounds is expressed as ID₅₀, that is to say, the amount of compound by weight of animal (dose) needed to inhibit the hypotension induced by PAF in a 50%.

mortality induced by PAF = experiment: Mortality induced by PAF in mice (p.o.); assay type: in vivo, Swiss mice; conditions: Mus musculus, oral administration 1 h before 100 mcg/kg PAF-C₁₈ + 1 mg/kg propanolol i.v., examined 2 h after PAF, dose inhibiting mortality in a 50%, read-out: ID₅₀
Experimental: Mortality induced by PAF in mice (p.o.).
This test was performed according to the procedure described by Young et al. (Prostaglandins, 1985, 30, 545-551). Groups of 10 Swiss mice weighing from 22 to 26 g were used. 100 mcg/kg of PAF-C₁₈ and 1 mg/kg of propanolol were administered through a lateral tail vein 1 h after the oral administration of the compounds to be tested (20 mL/kg). Animals were examined 2 h after the injection of PAF. The percentage of the inhibition of the mortality induced by PAF was determined for all the tested compounds in comparison with the control group. The results are expressed as ID₅₀ values, that is to say, the amount of compound by weight of animal (dose) needed to inhibit the mortality induced by PAF in a 50%.

[3] = anesthetized male rats, compound via femoral vein 3 min before PAF (0.5 mcg/Kg, i.v.), dose inhibiting PAF hypotension in a 50%

IC50 [1] [nM] | Compound | IC50 ([1]; Oryctolagus cuniculus) [nM] | ED50 [2, 3] [mg/kg] | ED50 (mortality induced by PAF) [mg/kg] | ID₅₀ [2, 3] [mg/Kg i.v.] | ED50 [2] [mg/kg]
 | CCOC(=O)NC(CC(=O)N1CCN(C(C#N)c2cccnc2C)CC1)c1ccccc1 (stereo not drawn) [Compound 42, 1-[3-(N-(Ethoxycarbonyl)amino)-3-phenylpropionyl]-4-[(2-methyl-3-pyridyl)cyanomethyl]piperazine] | 14 | 0.025 | 0.23 |  | 
 | Cc1ncccc1C(C#N)N1CCN(C(=O)CCNC(c2ccccc2)c2ccccc2)CC1 (stereo not drawn) [Compound 34, 1-[3-(N-(Diphenylmethyl)amino)propionyl]-4-[(2-methyl-3-pyridyl)cyanomethyl]piperazine] | 110 | 0.044 | 0.62 |  | 
 | COC(=O)NC(CC(=O)N1CCN(C(C#N)c2cccnc2C)CC1)c1ccccc1 (stereo not drawn) [Compound 41, 1-[3-(N-(Methoxycarbonyl)amino)-3-phenylpropionyl]-4-[(2-methyl-3-pyridyl)cyanomethyl]piperazine] | 41 | 0.015 | 0.044 |  | 
82 | Cc1ncccc1C(C#N)N1CCN(C(=O)CC(NC(=O)N(C)O)c2ccccc2)CC1 (stereo not drawn) [Compound 78, 1-[3-(N-(N'-hydroxy-N'-methylcarbamoyl)amino)-3-phenylpropionyl]-4-[(2-methyl-3-pyridyl)cyanomethyl]piperazine] |  |  |  | 0.055 | 
 | Cc1ncccc1C(C#N)N1CCN(C(=O)CC(NCc2ccccc2)c2ccccc2)CC1 (stereo not drawn) [Compound 15, 1-[3-(N-Benzylamino)-3-phenylpropionyl]-4-[(2-methyl-3-pyridyl)cyanomethyl]piperazine] | 9.1 | 0.035 | 1.2 |  | 
 | Cc1ncccc1C(C#N)N1CCN(C(=O)CC(O)(c2ccccc2)c2ccccc2)CC1 (stereo not drawn) [Compound 4, 1-(3,3-Diphenyl-3-hydroxypropionyl)-4-[(2-methyl-3-pyridyl)cyanomethyl]piperazine] | 17 | 0.039 | 0.69 |  | 
 | Cc1ncccc1C(C#N)N1CCN(C(=O)CC(c2ccccc2)N2CCOC2=O)CC1 (stereo not drawn) [Compound 68, 1-[3-(2-oxo-3-oxazolidinyl)-3-phenylpropionyl]-4-[(2-methyl-3-pyridyl)cyanomethyl]piperazine] | 63 | 0.029 | 0.3 to 1 |  | 
 | Cc1ncccc1C(C#N)N1CCN(C(=O)CNC(c2ccccc2)c2ccccc2)CC1 (stereo not drawn) [Compound 22, 1-[N-(Diphenylmethyl)aminoacetyl]-4-[(2-methyl-3-pyridyl)cyanomethyl]piperazine] | 85 | 0.021 | 0.3 |  | 
 | Cc1ncccc1C(C#N)N1CCN(C(=O)CC(c2ccccc2)c2ccccc2)CC1.Cl.Cl (stereo not drawn) [Compound 1, 1-(3,3-Diphenylpropionyl)-4-[(2-methyl-3-pyridyl)cyanomethyl]piperazine, dihydrochloride] | 18 | 0.015 |  |  | 
 | Cc1ncccc1C(C#N)N1CCN(C(=O)CC(c2ccccc2)N(O)C(N)=O)CC1 (stereo not drawn) [Compound 76, 1-[3-(N-carbamoyl-N-hydroxyamino)-3-phenylpropionyl]-4-[(2-methyl-3-pyridyl)cyanomethyl]piperazine] | 69 |  |  |  | 
 | CNC(=O)N(O)C(CC(=O)N1CCN(C(C#N)c2cccnc2C)CC1)c1ccccc1 (stereo not drawn) [Compound 77, 1-[3-(N-methylcarbamoyl-N-hydroxyamino)-3-phenylpropionyl]-4-[(2-methyl-3-pyridyl)cyanomethyl]piperazine] | 3000 | 0.045 |  |  | 
 | Cc1ncccc1C(C#N)N1CCN(C(=O)CC(Nc2ccccc2)c2ccccc2)CC1 (stereo not drawn) [Compound 74, 1-[3-(N-phenylamino)-3-phenylpropionyl]-4-[(2-methyl-3-pyridyl)cyanomethyl]piperazine] | 28 | 0.042 | 0.27 |  | 
 | Cc1ncccc1C(C#N)N1CCN(C(=O)CC(NC(=O)c2cccnc2)c2ccccc2)CC1 (stereo not drawn) [Compound 60, 1-[3-(N-(3-pyridylcarbonyl)amino)-3-phenylpropionyl]-4-[(2-methyl-3-pyridyl)cyanomethyl]piperazine] | 8.9 | 0.029 | 0.41 |  | 
 | Cc1ncccc1C(C#N)N1CCN(C(=O)CC(c2ccccc2)N2CCCC2=O)CC1 (stereo not drawn) [Compound 66, 1-[3-(2-oxo-1-pyrrolidinyl)-3-phenylpropionyl]-4-[(2-methyl-3-pyridyl)cyanomethyl]piperazine] | 29 | 0.026 | 0.13 |  | 
 | Cc1ncccc1C(C#N)N1CCN(C(=O)COC(c2ccccc2)c2ccccc2)CC1 (stereo not drawn) [Compound 36, 1-[(Diphenylmethoxy)acetyl]-4-[(2-methyl-3-pyridyl)cyanomethyl]piperazine] | 42 | 0.048 |  |  | 
 | Cc1ncccc1C(C#N)N1CCN(C(=O)C=C(c2ccccc2)c2ccccc2)CC1 (stereo not drawn) [Compound 5, 1-(3,3-Diphenylpropenoyl)-4-[(2-methyl-3-pyridyl)cyanomethyl]piperazine] | 26 | 0.038 |  |  | 
 | Cc1ncccc1C(C#N)N1CCN(C(=O)CCC(c2ccccc2)c2ccccc2)CC1 (stereo not drawn) [Compound 18, 1-(4,4-Diphenylbutanoyl)-4-[(2-methyl-3-pyridyl)cyanomethyl]piperazine] | 80 | 0.028 |  |  | 
 | Cc1ncccc1C(C#N)N1CCN(C(=O)CC(NC(=O)c2ccccc2)c2ccccc2)CC1 (stereo not drawn) [Compound 16, 1-[3-(N-Benzoylamino)-3-phenylpropionyl]-4-[(2-methyl-3-pyridyl)cyanomethyl]piperazine] | 9.1 | 0.056 |  |  | 
 | Cc1ncccc1C(C#N)N1CCN(C(=O)[C@H](C)NC(c2ccccc2)c2ccccc2)CC1 (stereo partly drawn) [Compound 28, 1-[(S)-2-(N-(Diphenylmethyl)amino)propionyl]-4-[(2-methyl-3-pyridyl)cyanomethyl]piperazine] | 13 | 0.025 | 1.6 |  | 
 | CC(=O)NC(CC(=O)N1CCN(C(C#N)c2cccnc2C)CC1)c1ccccc1 (stereo not drawn) [Compound 17, 1-[3-(N-acetylamino)-3-phenylpropionyl]-4-[(2-methyl-3-pyridyl)cyanomethyl]piperazine] | 38 | 0.035 | 0.09 |  | 
 | Cc1ncccc1C(C#N)N1CCN(C(=O)CC(NC(=O)Oc2ccccc2)c2ccccc2)CC1 (stereo not drawn) [Compound 44, 1-[3-(N-(Phenoxycarbonyl)amino)-3-phenylpropionyl]-4-[(2-methyl-3-pyridyl)cyanomethyl]piperazine] | 16 |  |  |  | 0.036
 | Cc1ncccc1C(C#N)N1CCN(C(=O)CC(O)(c2ccccc2)C(F)(F)F)CC1 (stereo not drawn) [Compound 11, 1-(3-Phenyl-3-hydroxy-3-(trifluoromethyl)propionyl)-4-[(2-methyl-3-pyridyl)cyanomethyl]piperazine] | 14 | 0.013 | 0.44 |  | 
 | CC(=O)N(O)C(CC(=O)N1CCN(C(C#N)c2cccnc2C)CC1)c1ccccc1 (stereo not drawn) [Compound 75, 1-[3-(N-acetyl-N-hydroxyamino)-3-phenylpropionyl]-4-[(2-methyl-3-pyridyl)cyanomethyl]piperazine] | 62 | 0.027 | 0.061 |  | 
 | Cc1ncccc1C(C#N)N1CCN(C(=O)CC(C)(O)c2ccccc2)CC1 (stereo not drawn) [Compound 9, 1-(3-Phenyl-3-hydroxybutanoyl)-4-[(2-methyl-3-pyridyl)cyanomethyl]piperazine] | 36 |  |  |  | 
